Laboratory results as given in patent publication US11413278B2, “Compounds and methods for promoting stress resistance” (priority 2015, dated 2022).
Entries after “also recorded” stand apart in the source; their conditions may differ.

Assays:
[1] = test system: mTOR; experiment: mTOR inhibition (RPS6 phosphorylation status), In-Cell Western; type: cell-based, human; conditions: for mTOR down-regulation by p-RPS6 assays: Assay 14(q), at 5 uM, 10 uM & 20 uM
Protocol: In-Cell Western assays were performed, following a standard immuno-staining protocol. Briefly, WI-38 cells were treated with small molecules for 24 hrs, and then processed and incubated with primary antibody cocktail (Cell Signaling, mouse anti-RPS, 1:25; rabbit-anti-pRPS6-(Ser-235/236), 1:100) overnight at 4° C. Next day, samples were processed and incubated with fluorophore-conjugated secondary antibodies (Cell Signaling, DyLight 680-goat anti-mouse, 1:500; DyLight 800-goat anti-rabbit, 1:1,000). Images were collected on an Odyssey Imager (LI-COR) and analyzed with the Image Studio Lite software (version 5.0.21).
Mammalian target of rapamycin (mTOR) is a crucial regulator of cell growth and metabolism and has been implicated in aging and many diseases, including cancer, diabetes and neurological diseases (Dazert and Hall, 2011; Zoncu et al., 2011). […] In addition, the anti-diabetes drug metformin (Kalender et al., 2010), as well as other AMPK activators such as 2-deoxy-D-glucose (Inoki et al., 2003) and AICAR (Shaw et al., 2004), could inhibit mTORC1. Applicants examined the effects of our molecules (at three doses, 5 μM, 10 μM and 20 μM) on the phosphorylation status of ribosomal protein S6 (RPS6), a readout of mTOR activity, to ask whether they could inhibit mTOR.
In-Cell Western assays were performed, following the same procedures to analyze DNA-damage markers. WI-38 cells were incubated with small molecules for 24 hrs, and then processed and incubated with primary antibody cocktail (mouse anti-RPS, 1:25; rabbit-anti-pRPS6, 1:100) overnight at 4° C. Next day, samples were processed and incubated with fluorophore-conjugated secondary antibodies (goat anti-mouse, 1:500; goat anti-rabbit, 1:1,000) in antibody dilution buffer. Images were collected on an Odyssey Imager (LI-COR) and analyzed with the Image Studio Lite software.

[2] = Summary score for characterization of 38 core set hits; conditions: for D = Triple resistant: 2-point score, multiplex resistance (cadmium, MMS, H2O2); for S = Sum of Negative scores: human; for C = H2O2- & Cd-resistant: score, resistance to both H2O2 and cadmium
Protocol: 38 “core set” small molecules are listed and are assigned a score, based on the result for each individual characterization. From our small molecule screen for H2O2-resistance, we isolated 61 top hits. […] Specifically, a 2-point score was assigned to the most well-known and prominent longevity-related phenotypes, such as multiplex resistance, activation of FOXO3 and/or NRF2, and down-regulation of mTOR. Small molecules were also analyzed for their ability to extend C. elegans' lifespan in 4 to 6 independent trials, and the lifespan score scale is from 0 to 2: 0 for no obvious effects, 1 for lifespan extension observed in 2 trials, 2 for observed in more than 2 trials. Certain molecules appeared to have DNA-damaging effects and/or potential cell-toxicity in cultured human cells, and they receive a negative point.

[3] = test system: C. elegans; type: in vivo, Caenorhabditis elegans; conditions: in vivo
Protocol: The worms were treated with the small molecules in liquid, with H2O2 (500 μM final concentration) added on day 4 of adulthood, and scored for viability everyday
FUdR was used to block progeny production. The molecules were analyzed in 96-well plates, with 4 wells for each small molecule. Multiple control wells with DMSO (0.2% final concentration) were included. […] Day 1 adults were transferred onto mini-plates, seeded with OP50 bacteria (UV-irradiated, kanamycin-treated) and supplemented with small molecules (˜60 μM final concentration, 0.2% DMSO). Worms were scored every other day. Cumulative survival was analyzed using the STATA software (log-rank test). […] The worms were treated with the small molecules in liquid, with H2O2 (500 μM final concentration) added on day 4 of adulthood, and scored for viability every day.

[4] = test system: LC3A/B puncta; experiment: Autophagy induction analysis (LC3A/B puncta immuno-staining); type: cell-based, human
Protocol: Immuno-staining of LC3A/B was performed, following a standard protocol. Briefly, WI-38 cells were treated with small molecules for 24 hrs, and then processed and incubated with primary antibody (Cell Signaling, rabbit anti-LC3A/B, 1:100) overnight at 4° C. Next day, samples were processed and incubated with fluorophore-conjugated secondary antibody and further incubated with DAPI dye. Images were collected on the INCell Analyzer 2000 (Experiment 1: 10× objective; Experiment 2: 20× objective) and analyzed with the Developer Toolbox. For Experiment 2, lysosomal-associated membrane protein 2 (LAMP2) was also counter-stained to identify the LC3A/B puncta that colocalize with lysosome and the data were analyzed by the MetaXpress software (Molecular Devices, version 5.1). The intensity of total (Exp. 1) or LAMP2-colocalized LC3A/B puncta (Exp. 2) was normalized the total numbers nuclei in the fields.
These assays were performed, following the same procedures to analyze DNA-damage markers. WI-38 cells were incubated with small molecules for 24 hrs, and then processed and incubated with primary antibody (rabbit anti-LC3A/B, 1:100) overnight at 4 C. The next day, samples were processed and incubated with fluorophore-conjugated secondary antibody and further incubated with DAPI dye. Images were collected on an INCell Analyzer 2000 and analyzed with the Developer software. Total LC3A/B puncta intensity was normalized the total numbers of DAPI-positive nuclei.

[5] = Exp. 1, at 10 μM, In-Cell Western, n=4
[6] = Exp. 3, at 5 μM, In-Cell Western, n=4
[7] = Exp. 3, at 10 μM, In-Cell Western, n=4

Row | SMILES | G = mTOR down-regulation ([1]; 2-point score) | G = mTOR down-regulation ([1]; summary score) | D = Triple resistant [2] | S = Sum of Negative scores [2] | C = H2O2- & Cd-resistant [2] | H2O2-resistance assay, 1st experiment [3] | L = H2O2-resistance in worms [3] | N = H2O2-resistance in woms [3] | H = Potential Autophagy Induction ([4]; score) | H = Potential Autophagy Induction ([4]; summary score) | mTOR down-regulation by p-RPS6 assays [1] | Exp. 1, normalized reduction in p-RPS6/RPS6 ratio ([1]; Exp. 1, In-Cell Western, n=4) | Exp. 1, normalized reduction in p-RPS6/RPS6 ratio [1, 5] | Exp. 2, normalized reduction in p-RPS6/RPS6 ratio ([1]; Exp. 2, at 10 μM, In-Cell Western, n=4) | Exp. 3, normalized reduction in p-RPS6/RPS6 ratio ([1]; Exp. 3, In-Cell Western, n=4) | Exp. 3, normalized reduction in p-RPS6/RPS6 ratio [1, 6] | Exp. 3, normalized reduction in p-RPS6/RPS6 ratio [1, 7] | mTOR inhibition (p-RPS6/RPS6), qualitative ([1]; In-Cell Western) | Protection of C. elegans from hydrogen peroxide [3]
1 | Cc1cc(N)n(-c2ccccc2C(=O)O)n1 [Gr-6A] | 0 | 0 | 2 | 0 | 1 | YES; | 0 | 0 | 0 | 0 |  |  |  |  |  |  |  |  | 
2 | O=C(/C=C/c1cn(-c2ccccc2)nc1-c1cccnc1)c1ccccc1 [Gr-6B] | 0 | 0 | 0 | 0 | 1 |  | 0 | 0 | 0 | 0 |  |  |  |  |  |  |  |  | 
3 | N=C1S/C(=C\c2cn(-c3ccccc3)nc2-c2cccs2)C(=O)N1c1nccs1 [Gr-6C] | 0 | 0 | 0 | 2 | 0 |  | 0 | 0 | 0 | 0 |  |  |  |  |  |  |  |  | 
4 | O=C(NCc1cccnc1)/C(=C\c1cccc(Oc2ccccc2)c1)S(=O)(=O)c1ccccc1 [Gr-7A] | 2 | 2 | 0 | 1 | 0 | YES; | 1 | 1 | 0 | 0 | YES | ~61% (−), at 20 μM | ~60% (−), at 10 μM; | ~75% (−), at 10 μM | ~92% (−), at 20 μM | ~50% (−), at 5 μM; | ~89% (−), at 10 μM; | mTOR-inhibiting activities; also recorded: consistently reduced the ratios | could protect C. elegans from hydrogen peroxide
5 | O=C(NCc1cccnc1)/C(=C\c1ccc(Br)cc1)S(=O)(=O)c1ccccc1 [Gr-7B] | 2 | 2 | 0 | 1 | 0 | YES; | 0 | 0 | 0 | 0 | YES | ~67% (−), at 20 μM | ~65% (−), at 10 μM; |  | ~53% (−), at 20 μM | ~48% (−), at 5 μM; | ~45% (−), at 10 μM; | mTOR-inhibiting activities; also recorded: consistently reduced the ratios | 
6 | O=C(NCc1cccnc1)/C(=C/c1ccc(-c2ccc(Cl)cc2)o1)S(=O)(=O)c1ccccc1 [Gr-7C] | 2 | 2 | 0 | 1 | 0 |  | 0 | 0 | 0 | 0 | YES | ~80% (−), at 20 μM |  |  | ~40% (−), at 20 μM | ~38% (−), at 5 μM; |  | consistently reduced the ratios | 
7 | O=C1NCCCc2cc(Cl)sc21 [O1] | 0 | 0 | 0 | 0 | 1 |  | 0 | 0 | 0 | 0 |  |  |  |  |  |  |  |  | 
